From patent US10702497B2, “Use of acyl-homoserine lactone derivatives as anti-thrombotic agents” (The University of Toledo, priority 2015, dated 2020)

Experiments:
Assay type in all cases: cell-based
human platelets [1] = test: Thrombin-induced platelet activation, surface CD62P by flow cytometry; settings: 0.1 U/ml thrombin; for maximal inhibitory concentration (MIC) for thrombin: AHL pre-incubation 15 minutes at 37° C., CD62P; for inhibition of platelet activation by thrombin: several concentrations of AHL
human platelets [2] = test: aggIgG-induced platelet activation, surface CD62P by flow cytometry; settings: aggIgG 50 or 500 μg/ml; several concentrations of AHL
human platelets [3] = test: Platelet tyrosine phosphorylation (whole cell lysates, SDS-PAGE, anti-phosphotyrosine blot); settings: 20 μM 12C-AHL
Procedure: FIGS. 3A-3C: Effect of AHLs on tyrosine phosphorylation. Human platelets were incubated with PBS or 12C-AHL then left unstimulated or stimulated with […] aggIgG or 0.1 Um′ thrombin. Whole cell lysates were prepared as described in the examples and blotted for anti-phosphotyrosine or anti-GAPDH as loading control. (FIG. 3A.) To determine band intensities, total band intensity in the phosphorylation gel was divided by the GAPDH signal and plotted as total band intensity. (FIG. 3B.) Intensity of the indicated band was compared to GAPDH and plotted as band intensity. (FIG. 3C.)
Results from the above experiments indicate that AHLs are altering platelet signaling downstream of FcγRIIa (the receptor for aggIgG) and thrombin receptors (PAR1/4) to a lesser extent. To test this, human platelets were incubated with PBS or 20 μM 12C-AHL for 15 min at 37° C. followed by stimulation with thrombin or aggIgG. Whole cell lysates were separated by SDS-PAGE and blotted for phosphotyrosine.

human platelets [4] = test: Platelet phagocytosis of IgG-coated beads through FcγRIIa (flow cytometry); settings: FITC-IgG-coated 1.5 μm beads, 30 minutes
Procedure: FIGS. 4A-4C: Effect of AHLs on platelet-mediated phagocytosis. Human platelets were incubated as indicated in the examples and analyzed by flow cytometry for FITC-IgG and PE-anti-IgG. (FIG. 4A.) Platelets were incubated with PBS, 10C- or 12C-AHLs or cytochalasin D (positive control to block phagocytosis), then exposed to FITC-IgG-coated […] beads for 30 minutes, labeled with anti-IgG conjugated to PE and analyzed by flow cytometry for FITC-IgG and PE-anti-IgG. (FIG. 4B.) Platelets were treated as in FIG. 4B and surface CD62P expression was measured by flow cytometry. * p<0.01, ** p<0.005. (FIG. 4C.)
Polystyrene beads, 1.5 μm in diameter, (Polysciences, Warrington, Pa.) were opsonized for 2 hours at 21° C. in a 10 mg/ml solution FITC labeled human IgG (SigmaAldrich, St. Louis, Mo.) or unlabeled human IgG for controls. After washing three times in PBS, beads were then resuspended in buffer and counted via hemacytometer. […]
Samples were prepared for flow cytometry and platelets with associated beads were gated on CD42b+/FITC+ and analyzed for internal/external by the absence/presence of PE expression on a FACSCalibur (B-D Biosciences). […] Data were analyzed using Cell Quest (B-D Biosciences) and FlowJo (Tree Star, Inc., Ashland, Oreg.) software.
Because AHLs inhibit signaling (especially aggIgG-induced tyrosine phosphorylation), whether other platelet activities are inhibited was evaluated. […]

| maximal inhibitory concentration (MIC) for thrombin (human platelets [1]) | SMILES | inhibition of platelet activation by thrombin (human platelets [1]) | inhibition of platelet activation by aggIgG (human platelets [2]) | effect on tyrosine phosphorylation in unstimulated platelets (human platelets [3]; 15 min at 37° C., unstimulated) | effect on tyrosine phosphorylation in platelets stimulated with thrombin (human platelets [3]; 0.1 U/ml thrombin) | effect on phosphorylation induced by aggIgG (human platelets [3]; aggIgG stimulation) | inhibition of the phagocytic activity of platelets (human platelets [4]) |
| --- | --- | --- | --- | --- | --- | --- | --- |
| 200 µM | CCCCCCCC(=O)CC(=O)N[C@H]1CCOC1=O [10C-AHL, N-(3-oxodecanoyl)-L-homoserine lactone] | inhibit platelet activation | inhibit platelet activation | – | – | – | – |
| 200 µM | CCCCCCCCCC(=O)CC(=O)N[C@@H]1CCOC1=O [12C-AHL, N-oxo-dodecanoyl-L-homoserine lactone] | inhibit platelet activation | inhibit platelet activation | marginal effect | marginal effect | nearly completely abolished | – |
| – | C=C1[C@@H](C)[C@H]2[C@H](Cc3ccccc3)NC(=O)[C@]23[C@H](OC(C)=O)/C=C/[C@@](C)(O)C(=O)[C@@H](C)C/C=C/[C@H]3[C@@H]1O [cytochalasin D] | – | – | – | – | – | > 90% |
